Data reported in patent US7135572B2 (CJ Corp, priority 2001, dated 2006).

Experiments:
cyclooxygenase-1 = target: T1, cyclooxygenase-1 (Homo sapiens, UniProt P23219); experiment: Inhibition of cyclooxygenase-1 in U-937 cells (PGE2 quantitation); type: cell-based; details: U-937 cells
T1 construct: The cultured U-937 (humane lymphoma cell, obtained from Korean cell line bank) was centrifuged to collect the pellet; endogenous in cells; host or cells: U-937 (human lymphoma cell line, Korean cell line bank)
T1 sequence (P23219 24-599): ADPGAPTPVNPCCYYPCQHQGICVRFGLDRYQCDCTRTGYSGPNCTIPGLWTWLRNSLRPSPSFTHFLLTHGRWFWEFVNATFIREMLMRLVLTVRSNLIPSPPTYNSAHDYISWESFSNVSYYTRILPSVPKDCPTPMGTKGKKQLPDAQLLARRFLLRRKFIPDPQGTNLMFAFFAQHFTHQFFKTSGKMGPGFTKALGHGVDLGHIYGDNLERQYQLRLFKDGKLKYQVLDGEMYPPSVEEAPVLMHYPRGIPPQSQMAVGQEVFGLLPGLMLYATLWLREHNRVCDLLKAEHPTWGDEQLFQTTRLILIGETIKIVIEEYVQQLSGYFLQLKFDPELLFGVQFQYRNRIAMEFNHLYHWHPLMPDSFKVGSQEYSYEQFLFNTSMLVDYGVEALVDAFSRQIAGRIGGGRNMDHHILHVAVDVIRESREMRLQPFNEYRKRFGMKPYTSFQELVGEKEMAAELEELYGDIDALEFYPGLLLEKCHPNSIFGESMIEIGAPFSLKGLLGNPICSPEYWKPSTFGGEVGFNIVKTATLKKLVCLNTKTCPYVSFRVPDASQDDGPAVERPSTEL
Procedure: (§1) In order to investigate pharmacologically the selective inhibition activity against cyclooxygenase-2 enzyme, the inhibitive effects against cyclooxygenase-1 and cyclooxygenase-2 were measured by two methods as follows.
Then, the pellet was diluted with 1×HBSS(Hank's balanced salt solutin) at the concentration of 1×10^6 cells/ml, and 1 ml of them was transferred into each well of 12-well plates, and then dissolved with DMSO. 5μl of the diluted sample solution, and 5μl of DMSO vehicle were added therein and mixed, and the mixture was cultured at 37° C. in Co2 incubator for 15 minutes. Arachidonic acid as a substrate was dissolved in ethanol to prepare a stock solution with a concentration of 10 mM, followed by diluting with 1×HBSS to prepare the solution of 1 mM. 10 μl of 1 mM Arachidonic acid solution was added to each of the treated wells, and the mixture was cultured at 37° C. in CO2 incubator for 30 minutes. The cell solution of each well was collected in the centrifuge tube and was centrifuged at 4° C. for 5 minutes at 10,000 rpm. As PGE2 existed in the supernatant separated from collected cell, the concentration of PGE2 was quantitated by using monoclonal kit from Cayman Chemicals, and the concentration of samples and vehicle were compared to estimate the inhibition ratio (%) of each compound against cyclooxygenase-1. Ultimately, the inhibition effect against the cyclooxygenase-1 enzyme was obtained from the result.

cyclooxygenase-2 = target: T2, cyclooxygenase-2 (Mus musculus, UniProt Q05769); experiment: Inhibition of cyclooxygenase-2 in Raw 264.7 cells treated with interferon γ and LPS (PGE2 EIA); type: cell-based; details: for Inhibitory effects of cyclooxygenase (COX): COX-2: Raw 264.7 cells; for selectivity of cyclooxygenase-2 compared with the comparative substance (in words): COX-2 versus COX-1
T2 construct: endogenous in cells; host or cells: Raw 264.7 (Korean cell line bank), aspirin-pretreated, induced with interferon gamma and LPS
T2 sequence (Q05769 18-604): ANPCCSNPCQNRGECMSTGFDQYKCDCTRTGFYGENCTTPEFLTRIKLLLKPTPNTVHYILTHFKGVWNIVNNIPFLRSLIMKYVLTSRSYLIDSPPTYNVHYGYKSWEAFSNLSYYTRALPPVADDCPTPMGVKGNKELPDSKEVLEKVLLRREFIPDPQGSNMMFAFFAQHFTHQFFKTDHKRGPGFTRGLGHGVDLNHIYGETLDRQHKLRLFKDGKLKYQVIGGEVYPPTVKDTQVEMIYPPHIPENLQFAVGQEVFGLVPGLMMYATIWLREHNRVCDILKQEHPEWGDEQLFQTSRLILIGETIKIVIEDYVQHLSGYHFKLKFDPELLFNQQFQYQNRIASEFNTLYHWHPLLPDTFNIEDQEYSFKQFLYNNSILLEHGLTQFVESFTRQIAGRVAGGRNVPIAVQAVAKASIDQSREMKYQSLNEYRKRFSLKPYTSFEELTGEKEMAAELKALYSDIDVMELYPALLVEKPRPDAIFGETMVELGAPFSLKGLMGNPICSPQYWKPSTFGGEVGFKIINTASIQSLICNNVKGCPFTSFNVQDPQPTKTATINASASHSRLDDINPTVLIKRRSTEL
Procedure: as §1
And then, each samples were replaced with new media and cultured for 30 minutes. In addition, the samples was treated with 100 units/ml of interferon Υ and 100 ng/ml of lipopolysaccharide(LPS), and cultured for 18 hours. Then, the media was transferred to other tubes and the PGE 2 was quantitated by using EIA kit from Cayman Chemicals.

| Inhibitory effects of cyclooxygenase (COX): COX-1 (cyclooxygenase-1; 3 μM) | Inhibitory effects of cyclooxygenase (COX): COX-1 (cyclooxygenase-1; 10 μM) | Inhibitory effects of cyclooxygenase (COX): COX-1 (cyclooxygenase-1; 30 μM) | Inhibitory effects of cyclooxygenase (COX): COX-2 (cyclooxygenase-2; 30 nM) | Inhibitory effects of cyclooxygenase (COX): COX-2 (cyclooxygenase-2; 100 nM) | Inhibitory effects of cyclooxygenase (COX): COX-2 (cyclooxygenase-2; 300 nM) | selectivity of cyclooxygenase-2 compared with the comparative substance (in words) (cyclooxygenase-2) | SMILES |
| --- | --- | --- | --- | --- | --- | --- | --- |
| 12.1 % inhibition | 25.9 % inhibition | 53.1 % inhibition | 48.5 % inhibition | 50.0 % inhibition | 81.4 % inhibition | – | Cc1nc(-c2ccccc2)n(-c2ccc(S(N)(=O)=O)cc2)n1 [Example 1, 4-(3-methyl-5-phenyl-[1,2,4]triazole-1-yl)-benzenesulfonamide] |
| 36.9 % inhibition | 53.4 % inhibition | 67.8 % inhibition | 28.8 % inhibition | 34.4 % inhibition | 45.7 % inhibition | – | Cc1nc(-c2ccc(F)cc2)n(-c2ccc(S(N)(=O)=O)cc2)n1 [Example 2, 4-[5-(4-fluoro-phenyl)-3-methyl-[1,2,4]triazole-1-yl]-benzenesulfonamide] |
| 0.1 % inhibition | 13.8 % inhibition | 29.7 % inhibition | 40.0 % inhibition | 74.1 % inhibition | 82.9 % inhibition | – | Cc1nc(-c2ccc(Cl)cc2)n(-c2ccc(S(N)(=O)=O)cc2)n1 [Example 3, 4-[5-(4-chloro-phenyl)-3-methyl-[1,2,4]triazole-1-yl]-benzenesulfonamide] |
| 85.6 % inhibition | 87.7 % inhibition | 91.1 % inhibition | 64.2 % inhibition | 99.0 % inhibition | 99.8 % inhibition | hardly different | Cc1nc(-c2ccc(Br)cc2)n(-c2ccc(S(N)(=O)=O)cc2)n1 [Example 4, 4-[5-(4-bromo-phenyl)-3-methyl-[1,2,4]triazole-1-yl]-benzenesulfonamide] |
| 21.1 % inhibition | 24.4 % inhibition | 28.1 % inhibition | 54.3 % inhibition | 55.0 % inhibition | 55.3 % inhibition | – | Cc1nc(-c2cccc(F)c2)n(-c2ccc(S(N)(=O)=O)cc2)n1 [Example 7, 4-[5-(3-fluoro-phenyl)-3-methyl-[1,2,4]triazole-1-yl]-benzenesulfonamide] |
| 62.0 % inhibition | 75.1 % inhibition | 84.7 % inhibition | 31.3 % inhibition | 52.6 % inhibition | 50.5 % inhibition | – | Cc1nc(-c2cccc(Cl)c2)n(-c2ccc(S(N)(=O)=O)cc2)n1 [Example 8, 4-[5-(3-chloro-phenyl)-3-methyl-[1,2,4]triazole-1-yl]-benzenesulfonamide] |
| 78.7 % inhibition | 81.9 % inhibition | 89.5 % inhibition | 66.5 % inhibition | 89.2 % inhibition | 99.2 % inhibition | hardly different | Cc1nc(-c2cccc(Br)c2)n(-c2ccc(S(N)(=O)=O)cc2)n1 [Example 9, 4-[5-(3-bromo-phenyl)-3-methyl-[1,2,4]triazole-1-yl]-benzenesulfonamide] |
| 38.8 % inhibition | 42.0 % inhibition | 45.6 % inhibition | 42.1 % inhibition | 54.2 % inhibition | 68.8 % inhibition | – | COc1cccc(-c2nc(C)nn2-c2ccc(S(N)(=O)=O)cc2)c1 [Example 10, 4-[5-(3-methoxy-phenyl)-3-methyl-[1,2,4]triazole-1-yl]-benzenesulfonamide] |
| 54.0 % inhibition | 61.3 % inhibition | 67.2 % inhibition | 25.0 % inhibition | 25.2 % inhibition | 37.7 % inhibition | – | COc1ccccc1-c1nc(C)nn1-c1ccc(S(N)(=O)=O)cc1 [Example 11, 4-[5-(2-methoxy-phenyl)-3-methyl-[1,2,4]triazole-1-yl]-benzenesulfonamide] |
| 63.8 % inhibition | 65.9 % inhibition | 76.8 % inhibition | 37.9 % inhibition | 56.1 % inhibition | 59.3 % inhibition | – | COc1cc(OC)cc(-c2nc(C)nn2-c2ccc(S(N)(=O)=O)cc2)c1 [Example 13, 4-[5-(3,5-dimethoxy-phenyl)-3-methyl-[1,2,4]triazole-1-yl]-benzenesulfonamide] |

| SMILES | Inhibitory effects of cyclooxygenase (COX): COX-1 (cyclooxygenase-1; 3 μM) | Inhibitory effects of cyclooxygenase (COX): COX-1 (cyclooxygenase-1; 10 μM) | Inhibitory effects of cyclooxygenase (COX): COX-1 (cyclooxygenase-1; 30 μM) | Inhibitory effects of cyclooxygenase (COX): COX-2 (cyclooxygenase-2; 30 nM) | Inhibitory effects of cyclooxygenase (COX): COX-2 (cyclooxygenase-2; 100 nM) | Inhibitory effects of cyclooxygenase (COX): COX-2 (cyclooxygenase-2; 300 nM) | selectivity of cyclooxygenase-2 compared with the comparative substance (in words) (cyclooxygenase-2) |
| --- | --- | --- | --- | --- | --- | --- | --- |
| Cc1ccc(-c2nc(C)nn2-c2ccc(S(N)(=O)=O)cc2)cc1 [Example 5, 4-(3-methyl-5-p-toly-[1,2,4]triazole-1-yl)-benzenesulfonamide] | 48.6 % inhibition | 61.1 % inhibition | 79.7 % inhibition | 45.3 % inhibition | 53.3 % inhibition | 75.2 % inhibition | – |
| COc1ccc(-c2nc(C)nn2-c2ccc(S(N)(=O)=O)cc2)cc1 [Example 6, 4-[5-(4-methoxy-phenyl)-3-mehtyl-[1,2,4]triazole-1-yl]-benzenesulfonamide] | 78.6 % inhibition | 85.6 % inhibition | 94.5 % inhibition | 68.8 % inhibition | 99.2 % inhibition | 99.9 % inhibition | hardly different |
| COc1ccc(-c2nc(C)nn2-c2ccc(S(N)(=O)=O)cc2)cc1OC [Example 12, 4-[5-(3,4-dimethoxy-phenyl)-3-mehtyl-[1,2,4]triazole-1-yl]-benzenesulfonamide] | 27.3 % inhibition | 34.3 % inhibition | 37.7 % inhibition | 30.3 % inhibition | 55.8 % inhibition | 70.4 % inhibition | – |
